Tests used:
human Nav1.7 = human Nav1.7 (Homo sapiens (Human), UniProt Q15858); experiment: FRET-based membrane potential assay, recombinant human sodium channel Nav1.7; format: cell-based; details: HEK293 cells stably expressing recombinant human Nav1.7; depolarization with veratridine (EC80) + scorpion venom
How it was run: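 IC50 derived by four-parameter Hill fit of percent inhibition of depolarization, measured as peak F440-480/F565-625 ratio over baseline. Stable human Nav1.7 HEK293 cells, dye-loaded with CC2-DMPE and DiSBAC2(3)/VABSC-1 at room temperature, received compound 3 min ahead of veratridine (EC80) plus scorpion venom.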

human Nav1.8 = human Nav1.8 (Homo sapiens (Human), UniProt Q9Y5Y9); experiment: FRET-based membrane potential assay, recombinant human sodium channel Nav1.8; format: cell-based; details: HEK293 cells stably expressing recombinant human Nav1.8; depolarization with veratridine (EC80) + scorpion venom
Procedure: FRET-Based Membrane Potential Assays.
Recombinant, Human Sodium Channel, Nav1.8.
Two days prior to the experiment, frozen HEK293 cells stably expressing recombinant human Nav1.8 (Essen, Ann Arbor, Mich.) were quickly thawed and plated at 22,500 cells/well in growth medium [MEM (Invitrogen #11095) with 10% FBS (Invitrogen #10082), 1 mM sodium pyruvate (Invitrogen, #C11360), 10 units/mL penicillin/10 U/mL streptomycin/29.2 μg/mL glutamine ((PSG 1%, Invitrogen #10378), 400 μg/mL zeocin (Invitrogen #R250) in black-walled, clear-bottom 384-well poly-D-lysine-coated assay plates (Greiner Bio-One, Frickenhausen, Germany) and incubated in a humidified 5% CO2 incubator at 37° C. On the day of the assay, medium was removed by aspiration, and cells were washed with assay buffer [HBSS (Invitrogen, Carlsbad, Calif.) containing 20 mM HEPES (Invitrogen, Carlsbad, Calif.)]. After washing, 30 μL assay buffer containing the fluorescent voltage-sensor probe CC2-DMPE (Invitrogen, Carlsbad, Calif.) at 20 μM and 0.01% pluronic F-127 (Invitrogen, Carlsbad, Calif.) was added to the cells. Cells were incubated for 40 minutes at room temperature in the dark. Following the incubation, the cells were washed and 30 μL assay buffer containing 2.5 μM DiSBAC2(3) substrate (Invitrogen, Carlsbad, Calif.) and 0.5 mM VABSC-1 (Invitrogen, Carlsbad, Calif.) was added to the cells. The cells were incubated for 60 minutes at room temperature in the dark. Fluorescence readings were made using a FLIPR®^TETRA (Molecular Devices, Sunnyvale Calif.) equipped with voltage-sensor probe optics. The depolarizing agent, veratridine (Sigma-Aldrich, St. Louis, Mo.), was made up at 3× concentrations in assay buffer containing 1 mg/mL scorpion venom (SVqq, from Leiurus quinquestriatus; Sigma-Aldrich, St. Louis, Mo.). The assay agonist/opener concentration was determined each day using a 6-point veratridine concentration curve in duplicate, tested with three concentrations of tetracaine (0.1, 0.06, 0.01 μM all in 0.03% dimethyl sulfoxide) and 0.03% dimethyl sulfoxide control in assay buffer. […] Test compounds in the daughter plate were diluted to (˜3×) solutions in assay buffer immediately before assaying. Using the FLIPR®^TETRA, 20 μL of the (3×) compound solutions were first added to the cells, then 20 μL of depolarizing solution (3×EC80 veratridine+SVqq) were added 3 minutes later to activate the channel. Changes in fluorescence were measured at wavelengths of 440-480 nm and 565-625 nm over the course of the experimental run. Membrane depolarization was expressed as a ratio of the maximum F440-480 nm/F565-625 nm reading above average baseline F440-480 nm/F565-625 nm reading. IC50 values were calculated from curve fits of the ratio data using a four-parameter logistic Hill equation (Accelrys Assay Explorer 3.3 Client, Accelrys, San Diego, Calif.) with percent inhibition plotted against compound concentration.

Chain of human Nav1.8 (Q9Y5Y9 whole entry): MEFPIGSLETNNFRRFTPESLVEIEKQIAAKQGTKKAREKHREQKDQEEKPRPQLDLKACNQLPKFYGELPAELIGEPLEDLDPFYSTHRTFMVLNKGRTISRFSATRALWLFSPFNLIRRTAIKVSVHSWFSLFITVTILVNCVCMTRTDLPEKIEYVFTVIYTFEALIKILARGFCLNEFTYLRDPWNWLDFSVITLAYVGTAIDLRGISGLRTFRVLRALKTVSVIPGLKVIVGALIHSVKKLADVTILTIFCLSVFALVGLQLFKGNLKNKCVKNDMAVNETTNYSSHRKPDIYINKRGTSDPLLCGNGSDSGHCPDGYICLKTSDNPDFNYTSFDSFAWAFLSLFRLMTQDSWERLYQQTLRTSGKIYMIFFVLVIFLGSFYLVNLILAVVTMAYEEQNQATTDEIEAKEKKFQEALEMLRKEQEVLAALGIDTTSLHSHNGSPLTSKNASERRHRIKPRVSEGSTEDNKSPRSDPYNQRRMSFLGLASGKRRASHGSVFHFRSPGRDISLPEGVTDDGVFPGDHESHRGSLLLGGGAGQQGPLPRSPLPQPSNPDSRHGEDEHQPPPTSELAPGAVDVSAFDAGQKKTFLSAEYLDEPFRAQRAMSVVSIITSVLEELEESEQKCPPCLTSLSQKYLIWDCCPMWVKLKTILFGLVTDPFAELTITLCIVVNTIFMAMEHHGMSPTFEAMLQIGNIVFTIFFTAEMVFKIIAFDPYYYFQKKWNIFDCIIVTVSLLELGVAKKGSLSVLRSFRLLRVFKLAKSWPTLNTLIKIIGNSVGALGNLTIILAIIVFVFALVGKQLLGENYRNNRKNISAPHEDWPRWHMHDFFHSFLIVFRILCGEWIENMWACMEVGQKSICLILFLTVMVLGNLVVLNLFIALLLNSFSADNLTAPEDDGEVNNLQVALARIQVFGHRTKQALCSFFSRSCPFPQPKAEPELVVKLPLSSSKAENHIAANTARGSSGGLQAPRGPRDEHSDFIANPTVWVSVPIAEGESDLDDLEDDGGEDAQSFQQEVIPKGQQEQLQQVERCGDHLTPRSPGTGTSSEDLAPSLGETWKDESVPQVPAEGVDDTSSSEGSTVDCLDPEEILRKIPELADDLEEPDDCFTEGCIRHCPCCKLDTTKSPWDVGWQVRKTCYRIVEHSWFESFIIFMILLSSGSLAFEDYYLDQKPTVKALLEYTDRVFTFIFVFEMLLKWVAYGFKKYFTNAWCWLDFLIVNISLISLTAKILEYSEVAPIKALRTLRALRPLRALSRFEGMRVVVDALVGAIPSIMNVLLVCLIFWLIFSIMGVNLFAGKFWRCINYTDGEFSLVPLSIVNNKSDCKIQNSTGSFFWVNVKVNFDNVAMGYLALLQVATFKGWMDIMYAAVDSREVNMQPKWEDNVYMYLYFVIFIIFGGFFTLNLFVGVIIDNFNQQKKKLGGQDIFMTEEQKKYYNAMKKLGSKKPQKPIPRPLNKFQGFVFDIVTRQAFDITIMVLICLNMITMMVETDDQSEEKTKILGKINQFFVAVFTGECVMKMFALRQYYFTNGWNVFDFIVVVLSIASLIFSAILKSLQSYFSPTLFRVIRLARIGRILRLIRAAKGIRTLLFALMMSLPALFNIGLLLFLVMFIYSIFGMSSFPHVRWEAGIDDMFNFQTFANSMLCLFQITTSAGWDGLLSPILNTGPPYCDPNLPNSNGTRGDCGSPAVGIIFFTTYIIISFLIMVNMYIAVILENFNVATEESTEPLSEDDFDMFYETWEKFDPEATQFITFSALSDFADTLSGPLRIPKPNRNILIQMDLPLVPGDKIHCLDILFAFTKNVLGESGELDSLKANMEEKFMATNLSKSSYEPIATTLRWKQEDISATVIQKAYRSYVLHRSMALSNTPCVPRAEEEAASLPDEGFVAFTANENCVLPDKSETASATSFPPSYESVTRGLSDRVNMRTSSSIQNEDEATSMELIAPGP
Chain of human Nav1.7 (Q15858 whole entry): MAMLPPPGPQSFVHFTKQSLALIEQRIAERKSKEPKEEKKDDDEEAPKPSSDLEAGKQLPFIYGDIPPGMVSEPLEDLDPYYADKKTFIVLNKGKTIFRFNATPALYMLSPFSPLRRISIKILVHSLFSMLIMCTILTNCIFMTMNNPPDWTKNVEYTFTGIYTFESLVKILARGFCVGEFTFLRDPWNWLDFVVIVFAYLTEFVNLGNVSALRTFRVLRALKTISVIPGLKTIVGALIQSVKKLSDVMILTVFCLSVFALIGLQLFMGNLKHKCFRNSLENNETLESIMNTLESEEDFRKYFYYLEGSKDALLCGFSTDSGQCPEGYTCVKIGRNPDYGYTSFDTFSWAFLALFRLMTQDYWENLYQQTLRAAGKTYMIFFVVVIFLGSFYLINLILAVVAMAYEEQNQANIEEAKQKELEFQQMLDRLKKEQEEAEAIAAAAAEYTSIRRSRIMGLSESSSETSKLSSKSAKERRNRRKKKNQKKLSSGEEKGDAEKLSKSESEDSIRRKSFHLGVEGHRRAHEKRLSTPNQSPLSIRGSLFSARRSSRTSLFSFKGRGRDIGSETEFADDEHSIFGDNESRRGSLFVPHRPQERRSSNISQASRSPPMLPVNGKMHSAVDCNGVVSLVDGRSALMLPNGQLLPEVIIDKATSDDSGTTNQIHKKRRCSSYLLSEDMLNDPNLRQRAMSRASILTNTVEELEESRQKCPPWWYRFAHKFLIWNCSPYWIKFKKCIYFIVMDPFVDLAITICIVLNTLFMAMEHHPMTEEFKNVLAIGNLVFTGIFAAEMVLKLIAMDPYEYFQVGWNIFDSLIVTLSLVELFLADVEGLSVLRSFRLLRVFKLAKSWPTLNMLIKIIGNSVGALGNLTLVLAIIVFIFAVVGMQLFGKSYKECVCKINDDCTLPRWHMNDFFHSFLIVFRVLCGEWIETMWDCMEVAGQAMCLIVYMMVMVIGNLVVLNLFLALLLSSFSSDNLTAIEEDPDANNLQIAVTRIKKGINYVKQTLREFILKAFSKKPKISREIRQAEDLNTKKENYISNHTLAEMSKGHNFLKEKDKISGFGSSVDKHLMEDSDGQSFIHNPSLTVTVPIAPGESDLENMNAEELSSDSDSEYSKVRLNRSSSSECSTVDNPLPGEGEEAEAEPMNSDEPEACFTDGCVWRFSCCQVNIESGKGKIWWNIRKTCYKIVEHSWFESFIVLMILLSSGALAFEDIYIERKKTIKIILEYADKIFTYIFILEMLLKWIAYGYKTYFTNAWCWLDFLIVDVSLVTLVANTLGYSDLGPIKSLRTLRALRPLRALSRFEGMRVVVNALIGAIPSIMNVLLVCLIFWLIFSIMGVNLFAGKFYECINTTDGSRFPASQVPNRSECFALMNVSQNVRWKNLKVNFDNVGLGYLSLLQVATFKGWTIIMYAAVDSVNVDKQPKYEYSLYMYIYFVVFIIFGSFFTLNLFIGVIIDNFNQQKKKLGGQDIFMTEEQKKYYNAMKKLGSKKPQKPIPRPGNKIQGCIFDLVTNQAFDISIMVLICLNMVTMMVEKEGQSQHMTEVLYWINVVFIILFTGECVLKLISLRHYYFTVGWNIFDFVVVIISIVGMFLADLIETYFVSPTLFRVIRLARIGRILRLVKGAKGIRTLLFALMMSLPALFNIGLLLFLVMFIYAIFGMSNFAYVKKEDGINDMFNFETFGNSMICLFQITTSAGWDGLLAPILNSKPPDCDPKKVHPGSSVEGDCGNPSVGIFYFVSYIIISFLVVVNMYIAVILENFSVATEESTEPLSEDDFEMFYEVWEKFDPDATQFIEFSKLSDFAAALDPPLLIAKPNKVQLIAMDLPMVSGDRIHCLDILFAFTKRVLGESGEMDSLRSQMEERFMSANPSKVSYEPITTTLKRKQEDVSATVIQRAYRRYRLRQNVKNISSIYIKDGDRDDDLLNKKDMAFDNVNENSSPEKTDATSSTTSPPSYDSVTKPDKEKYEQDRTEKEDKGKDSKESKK

## O=C(CN1CCN(c2cccc3c2cnn3-c2cccc(OC(F)(F)F)c2)C1=O)N1CC[C@H](F)C1 [Example 88, 1-{2-[(3S)-3-fluoropyrrolidin-1-yl]-2-oxoethyl}-3-{1-[3-(trifluoromethoxy)phenyl]-1H-indazol-4-yl}imidazolidin-2-one]
Human Nav1.7
  IC50: 351 nM
Human Nav1.8
  IC50: 1370 nM

## CC1(F)CN(C(=O)CN2CCN(c3cccc4c3cnn4-c3ccccc3F)C2=O)C1 [Example 309, 1-[2-(3-fluoro-3-methylazetidin-1-yl)-2-oxoethyl]-3-[1-(2-fluorophenyl)-1H-indazol-4-yl]imidazolidin-2-one]
Human Nav1.7
  IC50: 695 nM
Human Nav1.8
  IC50: 725 nM

## O=C(CN1CCN(c2cccc3c2cnn3-c2ccccc2F)C1=O)N1CC(F)(F)C(F)(F)C1 [Example 312, 1-[1-(2-fluorophenyl)-1H-indazol-4-yl]-3-[2-oxo-2-(3,3,4,4-tetrafluoropyrrolidin-1-yl)ethyl]imidazolidin-2-one]
Human Nav1.7
  IC50: 1710 nM
Human Nav1.8
  IC50: 1680 nM

## O=C(CN1CCN(c2cccc3c2cnn3-c2ccccc2F)C1=O)N[C@@H]1CCC[C@H]1OCc1ccccc1 [Example 335, N-[(1R,2R)-2-(benzyloxy)cyclopentyl]-2-{3-[1-(2-fluorophenyl)-1H-indazol-4-yl]-2-oxoimidazolidin-1-yl}acetamide]
Human Nav1.7
  IC50: 1110 nM
Human Nav1.8
  IC50: 501 nM

## O=C(CN1CCN(c2cccc3c2cnn3-c2ccccc2F)C1=O)N1CC[C@H](C(F)(F)F)C1 [Example 308, 1-[1-(2-fluorophenyl)-1H-indazol-4-yl]-3-{2-oxo-2-[(3S)-3-(trifluoromethyl)pyrrolidin-1-yl]ethyl}imidazolidin-2-one]
Human Nav1.7
  IC50: 1020 nM
Human Nav1.8
  IC50: 345 nM

## O=C(CN1CCN(c2cccc3c2cnn3-c2ccccc2F)C1=O)NCC1CCOC1 (centres unmarked) [Example 75, 2-{3-[1-(2-fluorophenyl)-1H-indazol-4-yl]-2-oxoimidazolidin-1-yl}-N-(tetrahydrofuran-3-ylmethyl)acetamide]
Human Nav1.7
  IC50: 7490 nM
Human Nav1.8
  IC50: 12100 nM

## CC(C)(C)OC(=O)CN1CCN(c2cccc3c2cnn3-c2ccccc2F)C1=O [Example 286, tert-butyl {3-[1-(2-fluorophenyl)-1H-indazol-4-yl]-2-oxoimidazolidin-1-yl}acetate]
Human Nav1.7
  IC50: 3170 nM
Human Nav1.8
  IC50: 3000 nM

## O=C1C[C@H]2CC[C@@H](C1)N2C(=O)CN1CCN(c2cccc3c2cnn3-c2ccccc2F)C1=O [Example 311, (1R,5S)-8-({3-[1-(2-fluorophenyl)-1H-indazol-4-yl]-2-oxoimidazolidin-1-yl}acetyl)-8-azabicyclo[3.2.1]octan-3-one]
Human Nav1.7
  IC50: 5850 nM
Human Nav1.8
  IC50: 4350 nM

## O=C(CN1CCN(c2cccc3c2cnn3-c2ccccc2F)C1=O)N1CCC(F)(F)CC1 [Example 297, 1-[2-(4,4-difluoropiperidin-1-yl)-2-oxoethyl]-3-[1-(2-fluorophenyl)-1H-indazol-4-yl]imidazolidin-2-one]
Human Nav1.7
  IC50: 3020 nM
Human Nav1.8
  IC50: 881 nM

## O=C(CN1CCN(c2cccc3c2cnn3-c2ccccc2F)C1=O)N1CCCC(C(F)(F)F)C1 (centres unmarked) [Example 300, 1-[1-(2-fluorophenyl)-1H-indazol-4-yl]-3-{2-oxo-2-[3-(trifluoromethyl)piperidin-1-yl]ethyl}imidazolidin-2-one]
Human Nav1.7
  IC50: 3110 nM
Human Nav1.8
  IC50: 1060 nM

## O=C(CN1CCN(c2cccc3c2cnn3-c2ccccc2F)C1=O)NC1CC(O)C1 (centres unmarked) [Example 350, 2-{3-[1-(2-fluorophenyl)-1H-indazol-4-yl]-2-oxoimidazolidin-1-yl}-N-(3-hydroxycyclobutyl)acetamide]
Human Nav1.7
  IC50: 9220 nM
Human Nav1.8
  IC50: 12300 nM

## O=C1N(c2cccc3c2cnn3-c2ccccc2F)CCN1[C@H]1CCCC[C@@H]1OCc1ccccc1 [Example 275, 1-[(1S,2S)-2-(benzyloxy)cyclohexyl]-3-[1-(2-fluorophenyl)-1H-indazol-4-yl]imidazolidin-2-one]
Human Nav1.7
  IC50: 1410 nM
Human Nav1.8
  IC50: 3700 nM

## O=C(/C=C\N1CCN(c2cccc3c2cnn3-c2ccccc2F)C1=O)N1CC[C@H](F)C1 [Example 314, 1-[1-(2-fluorophenyl)-1H-indazol-4-yl]-3-{(1Z)-3-[(3S)-3-fluoropyrrolidin-1-yl]-3-oxoprop-1-en-1-yl}imidazolidin-2-one]
Human Nav1.7
  IC50: 3250 nM
Human Nav1.8
  IC50: 912 nM

## O=C(CN1CCN(c2cccc3c2cnn3-c2cc(Cl)cc(Cl)c2)C1=O)N1CC[C@H](F)C1 [Example 348, 1-[1-(3,5-dichlorophenyl)-1H-indazol-4-yl]-3-{2-[(3S)-3-fluoropyrrolidin-1-yl]-2-oxoethyl}imidazolidin-2-one]
Human Nav1.7
  IC50: 13400 nM
Human Nav1.8
  IC50: 3260 nM

## O=C1CCCN(C(=O)CN2CCN(c3cccc4c3cnn4-c3ccccc3F)C2=O)CC1 [Example 313, 1-({3-[1-(2-fluorophenyl)-1H-indazol-4-yl]-2-oxoimidazolidin-1-yl}acetyl)azepan-4-one]
Human Nav1.7
  IC50: 2720 nM
Human Nav1.8
  IC50: 3250 nM

## O=C(CCN1CCN(c2cccc3c2cnn3-c2ccccc2F)C1=O)N1CC[C@H](F)C1 [Example 292, 1-[1-(2-fluorophenyl)-1H-indazol-4-yl]-3-{3-[(3S)-3-fluoropyrrolidin-1-yl]-3-oxopropyl}imidazolidin-2-one]
Human Nav1.7
  IC50: 2960 nM
Human Nav1.8
  IC50: 4440 nM

## O=C(CN1CCN(c2cccc3c2cnn3-c2ccccc2F)C1=O)N[C@H]1CCOC1 [Example 87, 2-{3-[1-(2-fluorophenyl)-1H-indazol-4-yl]-2-oxoimidazolidin-1-yl}-N-[(3S)-tetrahydrofuran-3-yl]acetamide]
Human Nav1.7
  IC50: 2460 nM
Human Nav1.8
  IC50: 5560 nM

## O=C(CN1CCN(c2cccc3c2cnn3-c2ccccc2F)C1=O)N1CC(C(F)(F)F)C1 [Example 329, 1-[1-(2-fluorophenyl)-1H-indazol-4-yl]-3-{2-oxo-2-[3-(trifluoromethyl)azetidin-1-yl]ethyl}imidazolidin-2-one]
Human Nav1.7
  IC50: 2720 nM
Human Nav1.8
  IC50: 3130 nM

## O=C(CN1CCN(c2cccc3c2cnn3-c2ccccc2F)C1=O)N1CCC[C@H](O)C1 [Example 290, 1-[1-(2-fluorophenyl)-1H-indazol-4-yl]-3-{2-[(3S)-3-hydroxypiperidin-1-yl]-2-oxoethyl}imidazolidin-2-one]
Human Nav1.7
  IC50: 4150 nM
Human Nav1.8
  IC50: 13500 nM

## O=C(CN1CCN(c2cccc3c2cnn3C2CCCCC2)C1=O)N1CC[C@H](F)C1 [Example 294, 1-(1-cyclohexyl-1H-indazol-4-yl)-3-{2-[(3S)-3-fluoropyrrolidin-1-yl]-2-oxoethyl}imidazolidin-2-one]
Human Nav1.7
  IC50: 7170 nM
Human Nav1.8
  IC50: 18300 nM

## O=C(Cn1ccn(-c2cccc3c2cnn3-c2ccccc2F)c1=O)N1CC[C@H](F)C1 [Example 11, 1-[1-(2-fluorophenyl)-1H-indazol-4-yl]-3-{2-[(3S)-3-fluoropyrrolidin-1-yl]-2-oxoethyl}-1,3-dihydro-2H-imidazol-2-one]
Human Nav1.7
  IC50: 483 nM
Human Nav1.8
  IC50: 1470 nM

## O=C(CN1CCN(c2cccc3c2cnn3-c2ccccc2F)C1=O)N1CCC(C(F)(F)F)CC1 [Example 299, 1-[1-(2-fluorophenyl)-1H-indazol-4-yl]-3-{2-oxo-2-[4-(trifluoromethyl)piperidin-1-yl]ethyl}imidazolidin-2-one]
Human Nav1.7
  IC50: 950 nM
Human Nav1.8
  IC50: 398 nM

## O=C(CN1CCN(c2cccc3c2cnn3-c2ccccc2F)C1=O)NCC(F)(F)F [Example 304, 2-{3-[1-(2-fluorophenyl)-1H-indazol-4-yl]-2-oxoimidazolidin-1-yl}-N-(2,2,2-trifluoroethyl)acetamide]
Human Nav1.7
  IC50: 4790 nM
Human Nav1.8
  IC50: 1410 nM

## O=C(CN1CCN(c2cccc3c2cnn3-c2ccccc2F)C1=O)N1CCOCC1 [Example 293, 1-[1-(2-fluorophenyl)-1H-indazol-4-yl]-3-[2-(morpholin-4-yl)-2-oxoethyl]imidazolidin-2-one]
Human Nav1.7
  IC50: 3670 nM
Human Nav1.8
  IC50: 17600 nM

## O=C(CN1CCN(c2cccc3c2cnn3-c2ccccc2F)C1=O)NC1CCCCC1 [Example 324, N-cyclohexyl-2-{3-[1-(2-fluorophenyl)-1H-indazol-4-yl]-2-oxoimidazolidin-1-yl}acetamide]
Human Nav1.7
  IC50: 1410 nM
Human Nav1.8
  IC50: 526 nM
